Experimental data as given in PubChem BioAssay (NCI).
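Five compound concentrations were applied to cells in 96-well plates for 48 hours; endpoints were derived by simple linear interpolation of the resulting dose-response curve. The concentration for full growth arrest is given as TGI.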

Columns and labels:
Assay in all cases: NCI-60 cell line screen, 48 h
786-0 renal = tested on: 786-0 renal
A498 renal = tested on: A498 renal
A549 NSCLC = tested on: A549 NSCLC
ACHN renal = tested on: ACHN renal
BT-549 breast = tested on: BT-549 breast
CAKI-1 renal = tested on: CAKI-1 renal
CCRF-CEM leukemia = tested on: CCRF-CEM leukemia
COLO 205 colon = tested on: COLO 205 colon
DU-145 prostate = tested on: DU-145 prostate
EKVX NSCLC = tested on: EKVX NSCLC
HCC-2998 colon = tested on: HCC-2998 colon
HCT-116 colon = tested on: HCT-116 colon
HCT-15 colon = tested on: HCT-15 colon
HL-60(TB) leukemia = tested on: HL-60(TB) leukemia
HOP-62 NSCLC = tested on: HOP-62 NSCLC
HOP-92 NSCLC = tested on: HOP-92 NSCLC
HS 578T breast = tested on: HS 578T breast
HT29 colon = tested on: HT29 colon
K-562 leukemia = tested on: K-562 leukemia
KM12 colon = tested on: KM12 colon
LOX IMVI melanoma = tested on: LOX IMVI melanoma
M14 melanoma = tested on: M14 melanoma
MALME-3M melanoma = tested on: MALME-3M melanoma
MCF7 breast = tested on: MCF7 breast
MDA-MB-231 breast = tested on: MDA-MB-231 breast
MDA-MB-435 = tested on: MDA-MB-435
MOLT-4 leukemia = tested on: MOLT-4 leukemia
NCI-H226 lung = tested on: NCI-H226 lung
NCI-H23 lung = tested on: NCI-H23 lung
NCI-H460 lung = tested on: NCI-H460 lung
NCI-H522 lung = tested on: NCI-H522 lung
NCI/ADR-RES ovarian = tested on: NCI/ADR-RES ovarian
OVCAR-3 ovarian = tested on: OVCAR-3 ovarian
OVCAR-4 ovarian = tested on: OVCAR-4 ovarian
OVCAR-5 ovarian = tested on: OVCAR-5 ovarian
OVCAR-8 ovarian = tested on: OVCAR-8 ovarian
PC-3 prostate = tested on: PC-3 prostate
RXF 393 renal = tested on: RXF 393 renal
SF-268 CNS = tested on: SF-268 CNS
SF-295 CNS = tested on: SF-295 CNS
SF-539 CNS = tested on: SF-539 CNS
SK-MEL-2 melanoma = tested on: SK-MEL-2 melanoma
SK-MEL-28 melanoma = tested on: SK-MEL-28 melanoma
SK-MEL-5 melanoma = tested on: SK-MEL-5 melanoma
SK-OV-3 ovarian = tested on: SK-OV-3 ovarian
SN12C renal = tested on: SN12C renal
SNB-19 CNS = tested on: SNB-19 CNS
SNB-75 CNS = tested on: SNB-75 CNS
SR leukemia = tested on: SR leukemia
SW-620 colon = tested on: SW-620 colon
T-47D breast = tested on: T-47D breast
TK-10 renal = tested on: TK-10 renal
U251 CNS = tested on: U251 CNS
UACC-257 melanoma = tested on: UACC-257 melanoma
UACC-62 melanoma = tested on: UACC-62 melanoma
UO-31 renal = tested on: UO-31 renal
IGROV1 ovarian = tested on: IGROV1 ovarian
RPMI-8226 leukemia = tested on: RPMI-8226 leukemia

O=C(c1ccco1)N(Cc1cccnc1)C(=S)N(Cc1cccnc1)C(=O)c1ccco1
TGI (786-0 renal): 11.8 µM
TGI (A498 renal): 62.7 µM
TGI (A549 NSCLC): 38.8 µM
TGI (ACHN renal): 30.7 µM
TGI (BT-549 breast): 66.2 µM
TGI (CAKI-1 renal): 45.4 µM
TGI (CCRF-CEM leukemia): 14.5 µM
TGI (COLO 205 colon): 16.3 µM
TGI (DU-145 prostate): > 100 µM
TGI (EKVX NSCLC): 35.8 µM
TGI (HCC-2998 colon): 31.8 µM
TGI (HCT-116 colon): 20.6 µM
TGI (HCT-15 colon): 77.7 µM
TGI (HL-60(TB) leukemia): 49 µM
TGI (HOP-62 NSCLC): 44.1 µM
TGI (HOP-92 NSCLC): 38.7 µM
TGI (HS 578T breast): 56.4 µM
TGI (HT29 colon): 44.3 µM
TGI (K-562 leukemia): > 100 µM
TGI (KM12 colon): 23.4 µM
TGI (LOX IMVI melanoma): 27.8 µM
TGI (M14 melanoma): 27 µM
TGI (MALME-3M melanoma): 32.7 µM
TGI (MCF7 breast): 14.7 µM
TGI (MDA-MB-231 breast): 22.6 µM
TGI (MDA-MB-435): 38.7 µM
TGI (MOLT-4 leukemia): > 100 µM
TGI (NCI-H226 lung): 47.9 µM
TGI (NCI-H23 lung): 61.6 µM
TGI (NCI-H460 lung): 55.6 µM
TGI (NCI-H522 lung): 29.9 µM
TGI (NCI/ADR-RES ovarian): > 100 µM
TGI (OVCAR-3 ovarian): 23.4 µM
TGI (OVCAR-4 ovarian): 50 µM
TGI (OVCAR-5 ovarian): 46.9 µM
TGI (OVCAR-8 ovarian): 66 µM
TGI (PC-3 prostate): 19.7 µM
TGI (RXF 393 renal): 57.4 µM
TGI (SF-268 CNS): 43.6 µM
TGI (SF-295 CNS): 77.1 µM
TGI (SF-539 CNS): 26.7 µM
TGI (SK-MEL-2 melanoma): 28.1 µM
TGI (SK-MEL-28 melanoma): 45.8 µM
TGI (SK-MEL-5 melanoma): 29.1 µM
TGI (SK-OV-3 ovarian): 83.8 µM
TGI (SN12C renal): 24 µM
TGI (SNB-19 CNS): 83.5 µM
TGI (SNB-75 CNS): 98.7 µM
TGI (SR leukemia): > 100 µM
TGI (SW-620 colon): 36.5 µM
TGI (T-47D breast): 63.2 µM
TGI (TK-10 renal): 23.3 µM
TGI (U251 CNS): 31.4 µM
TGI (UACC-257 melanoma): 31.7 µM
TGI (UACC-62 melanoma): 29.7 µM
TGI (UO-31 renal): 28.8 µM

CN1CN(c2ccccc2)C2(CCN(Cc3nc4ccccc4s3)CC2)C1=O
TGI (786-0 renal): 31.3 µM
TGI (A498 renal): 30.7 µM
TGI (A549 NSCLC): 33.4 µM
TGI (ACHN renal): 39.8 µM
TGI (BT-549 breast): 30.3 µM
TGI (CAKI-1 renal): 49.6 µM
TGI (CCRF-CEM leukemia): 41.6 µM
TGI (COLO 205 colon): 32.1 µM
TGI (DU-145 prostate): 38.3 µM
TGI (EKVX NSCLC): 48.3 µM
TGI (HCT-116 colon): 28.1 µM
TGI (HCT-15 colon): 35.1 µM
TGI (HL-60(TB) leukemia): 29.1 µM
TGI (HOP-62 NSCLC): 30.7 µM
TGI (HOP-92 NSCLC): 28.5 µM
TGI (HS 578T breast): 41.8 µM
TGI (HT29 colon): 30.7 µM
TGI (IGROV1 ovarian): 30.4 µM
TGI (K-562 leukemia): 32.4 µM
TGI (LOX IMVI melanoma): 34.9 µM
TGI (M14 melanoma): 26.3 µM
TGI (MALME-3M melanoma): 31.8 µM
TGI (MCF7 breast): 29.5 µM
TGI (MDA-MB-231 breast): 27.2 µM
TGI (MDA-MB-435): 32.3 µM
TGI (MOLT-4 leukemia): 34.3 µM
TGI (NCI-H226 lung): 36.2 µM
TGI (NCI-H23 lung): 34.2 µM
TGI (NCI/ADR-RES ovarian): 33.5 µM
TGI (OVCAR-3 ovarian): 32.4 µM
TGI (OVCAR-4 ovarian): 38 µM
TGI (OVCAR-5 ovarian): 34.1 µM
TGI (OVCAR-8 ovarian): 28.8 µM
TGI (PC-3 prostate): 28.8 µM
TGI (RPMI-8226 leukemia): 36.2 µM
TGI (RXF 393 renal): 29.9 µM
TGI (SF-268 CNS): 44.3 µM
TGI (SF-295 CNS): 32 µM
TGI (SF-539 CNS): 32.4 µM
TGI (SK-MEL-2 melanoma): 34.1 µM
TGI (SK-MEL-28 melanoma): 31.5 µM
TGI (SK-MEL-5 melanoma): 29.6 µM
TGI (SK-OV-3 ovarian): 52.7 µM
TGI (SN12C renal): 31.7 µM
TGI (SNB-19 CNS): 28.6 µM
TGI (SNB-75 CNS): 32.6 µM
TGI (SR leukemia): 33.9 µM
TGI (T-47D breast): 32 µM
TGI (TK-10 renal): 34.9 µM
TGI (U251 CNS): 30 µM
TGI (UACC-257 melanoma): 30.4 µM
TGI (UACC-62 melanoma): 30.1 µM
TGI (UO-31 renal): 29 µM
